These results are taken from PubChem BioAssay (NCI).

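Each compound was tested at five concentrations against cells in 96-well plates for 48 hours. Here, GI50 denotes the concentration required for 50% inhibition of growth. TGI denotes the concentration required for complete inhibition of growth.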

Among the test systems are OVCAR-8 ovarian; HT29 colon; NCI-H460 lung; OVCAR-3 ovarian; MDA-MB-231 breast; SK-MEL-28 melanoma; T-47D breast; DU-145 prostate; SR leukemia.
Holding throughout (assay): inhibition of tumour cell growth, NCI panel, 48 h

As to `Cn1cc(-c2ccc3c(Nc4cccc(NC(=O)Nc5cccc(F)c5)c4)ncnc3c2)cn1`, the GI50 in the experiment on OVCAR-8 ovarian is 2.25 µM; in the experiment with HT29 colon, 1.97 µM; with NCI-H460 lung, 0.984 µM; with OVCAR-3 ovarian, 1.51 µM; with MDA-MB-231 breast it was 2.88 µM; in the experiment with SK-MEL-28 melanoma, 1.55 µM. Further, the GI50 is 1.62 µM with T-47D breast, 1.86 µM in the experiment on DU-145 prostate and 1.24 µM in the experiment with SR leukemia. Also, the TGI in the experiment with OVCAR-8 ovarian is above 100 µM; in the experiment on HT29 colon, 12.6 µM; in the experiment on NCI-H460 lung, 2.41 µM; with OVCAR-3 ovarian, 3.27 µM; in the experiment with MDA-MB-231 breast, 12.3 µM; in the experiment on SK-MEL-28 melanoma, 3.08 µM. Also, the TGI in the experiment on T-47D breast was 28.7 µM; in the experiment on DU-145 prostate, 6.6 µM; in the experiment with SR leukemia it was above 100 µM.
For the molecule `COc1ccc2[nH]c(=O)c3c4ccccc4cn3c2c1`, the GI50 in the experiment with OVCAR-8 ovarian is 1.09 µM; with HT29 colon it was 0.375 µM; with NCI-H460 lung it was 0.19 µM; in the experiment with OVCAR-3 ovarian, 0.253 µM; with MDA-MB-231 breast, 1.24 µM; in the experiment on SK-MEL-28 melanoma it was 0.663 µM. For the same molecule, the results for the GI50 in the experiment with T-47D breast, in the experiment on DU-145 prostate and with SR leukemia were 0.756 µM, 0.604 µM and 0.125 µM, respectively. In addition, the TGI in the experiment on OVCAR-8 ovarian was 3.29 µM; in the experiment on HT29 colon, 1.44 µM; in the experiment with NCI-H460 lung, 1.31 µM; with OVCAR-3 ovarian, 0.608 µM; in the experiment with MDA-MB-231 breast, 5.85 µM; in the experiment on SK-MEL-28 melanoma, 2.01 µM. Besides, the TGI with T-47D breast stood at 3.84 µM; with DU-145 prostate, 3.63 µM; in the experiment on SR leukemia it was 0.842 µM.
With `CC[C@]12CCCN3CCc4c(n(c5ccccc45)C(=O)C1)[C@@H]32`, the TGI with OVCAR-8 ovarian is above 100 µM; in the experiment with HT29 colon, above 52.7 µM; in the experiment on NCI-H460 lung, above 100 µM; in the experiment with OVCAR-3 ovarian, 5.81 µM; in the experiment with MDA-MB-231 breast, above 86.3 µM; with SK-MEL-28 melanoma, above 100 µM. The TGI with T-47D breast was above 100 µM; with DU-145 prostate, above 92.7 µM; in the experiment with SR leukemia it was 18 µM.
Consider `C/C(=N\NC(=O)c1sc(=S)n(C)c1N)c1cc2ccccc2o1`, for which the GI50 in the experiment with OVCAR-8 ovarian was 15.3 µM; in the experiment on HT29 colon, 5.05 µM; in the experiment on NCI-H460 lung it was 5.89 µM; with OVCAR-3 ovarian, 15.5 µM; in the experiment on MDA-MB-231 breast, 4.86 µM; in the experiment on SK-MEL-28 melanoma, 21.6 µM. In addition, the GI50 in the experiment on T-47D breast is 18.6 µM; in the experiment on DU-145 prostate, 11.4 µM; in the experiment with SR leukemia, 8.04 µM. Also, the TGI with OVCAR-8 ovarian was 33.8 µM; with HT29 colon, 18.9 µM; in the experiment with NCI-H460 lung it was 24.1 µM; with OVCAR-3 ovarian it was 29.9 µM; in the experiment with MDA-MB-231 breast, 16.5 µM; in the experiment with SK-MEL-28 melanoma, above 100 µM. The TGI in the experiment on T-47D breast was above 100 µM; in the experiment on DU-145 prostate, 27.6 µM; in the experiment with SR leukemia, 22 µM.
For `O=C(Nc1ccc(Cl)c(Cl)c1)c1cccc(NC2=C(Cl)C(=O)N(Cc3ccccc3)C2=O)c1`, the GI50 is 31.6 µM in the experiment with OVCAR-8 ovarian; 59.6 µM in the experiment on HT29 colon; 30.3 µM in the experiment on NCI-H460 lung; 24.6 µM with OVCAR-3 ovarian; 26.4 µM in the experiment on MDA-MB-231 breast; above 100 µM in the experiment on SK-MEL-28 melanoma. In addition, the GI50 in the experiment on T-47D breast is 61.2 µM; in the experiment on DU-145 prostate, 20.6 µM; in the experiment with SR leukemia, 8.37 µM. Moreover, the TGI in the experiment on OVCAR-8 ovarian was 89.5 µM; with HT29 colon, above 100 µM; in the experiment with NCI-H460 lung, above 100 µM; in the experiment on OVCAR-3 ovarian it was above 100 µM; with MDA-MB-231 breast, above 100 µM; with SK-MEL-28 melanoma, above 100 µM. In addition, the values for the TGI in the experiment with T-47D breast, in the experiment on DU-145 prostate and in the experiment on SR leukemia were above 100 µM, above 100 µM and 68 µM, respectively.
`COc1cc(NS(C)(=O)=O)ccc1Nc1c2ccc([N+](=O)[O-])cc2nc2c(C)cccc12`: the GI50 in the experiment on OVCAR-8 ovarian was 1.08 µM; with HT29 colon, 1.41 µM; in the experiment on OVCAR-3 ovarian it was 1.17 µM; in the experiment on MDA-MB-231 breast, 3.82 µM; in the experiment with SK-MEL-28 melanoma, 2.73 µM; in the experiment with T-47D breast it was 0.117 µM. Also, the figures for the GI50 in the experiment with DU-145 prostate and in the experiment with SR leukemia were 0.133 µM and below 0.012 µM, respectively. Also, the TGI stood at 14 µM in the experiment on OVCAR-8 ovarian; 7.1 µM in the experiment with HT29 colon; 1.59 µM with NCI-H460 lung; 9.16 µM in the experiment on OVCAR-3 ovarian; 16.4 µM in the experiment on MDA-MB-231 breast; 17.4 µM in the experiment on SK-MEL-28 melanoma. The TGI with T-47D breast worked out at 7.68 µM; with DU-145 prostate it was 10.7 µM; with SR leukemia, 5.82 µM.
On to `O=C[C@@H](CO)O[C@H](C=O)c1c[nH]c(=O)[nH]c1=O`, for which the TGI worked out at 352 µM with OVCAR-8 ovarian; 595 µM in the experiment with HT29 colon; 508 µM with NCI-H460 lung; 309 µM in the experiment on OVCAR-3 ovarian; 389 µM in the experiment with MDA-MB-231 breast; 237 µM with SK-MEL-28 melanoma. Further, the TGI in the experiment with T-47D breast is 606 µM; in the experiment on DU-145 prostate, 437 µM; in the experiment on SR leukemia, 614 µM.
Consider `COc1ccc(C(=O)c2cc(OC)c(OC)c(OC)c2)cc1`, for which the TGI is 31.7 µM in the experiment on OVCAR-8 ovarian; above 100 µM in the experiment with HT29 colon; 17.2 µM in the experiment with NCI-H460 lung; 0.283 µM in the experiment on OVCAR-3 ovarian; above 100 µM with MDA-MB-231 breast; above 95.8 µM in the experiment with SK-MEL-28 melanoma. Also, the TGI in the experiment on T-47D breast came out at 66.7 µM; in the experiment with DU-145 prostate, 1.58 µM; in the experiment on SR leukemia, 4.49 µM.
`CCc1nc(N)nc(N)c1-c1ccc(NCCN)c([N+](=O)[O-])c1`: the TGI in the experiment on OVCAR-8 ovarian, with HT29 colon, in the experiment with NCI-H460 lung, with OVCAR-3 ovarian, in the experiment with MDA-MB-231 breast and in the experiment with SK-MEL-28 melanoma was above 100 µM in each case. Also, the values for the TGI with T-47D breast, in the experiment on DU-145 prostate and in the experiment with SR leukemia were above 100 µM, above 100 µM and above 55.8 µM, respectively.
Take `COC(=O)[C@@]12C(=O)C=CC(=O)[C@@H]1C1C(=CC2COC(C)=O)O[C@@H]2OC3(CCCCC3)O[C@H]12` (stereo partly drawn): the TGI with OVCAR-8 ovarian worked out at 20 µM; in the experiment on HT29 colon, 19.3 µM; in the experiment on NCI-H460 lung, 32.9 µM; with OVCAR-3 ovarian it was 17.1 µM; in the experiment with MDA-MB-231 breast it was 39.9 µM; with SK-MEL-28 melanoma, 32.7 µM. Besides, the figures for the TGI in the experiment on T-47D breast, in the experiment on DU-145 prostate and in the experiment with SR leukemia were 13.2 µM, 32.2 µM and above 100 µM, respectively.
Turning to `Clc1ncnc(Cl)c1Cl`, the TGI with OVCAR-8 ovarian, with HT29 colon, with NCI-H460 lung, with OVCAR-3 ovarian, with MDA-MB-231 breast and with SK-MEL-28 melanoma was above 100 µM each time. For the same molecule, the TGI with T-47D breast, in the experiment with DU-145 prostate and in the experiment on SR leukemia was above 100 µM in each case.
